Reference: patent US6492329B1, “Cytokine and hemopoietic factor endogenous production enhancer and methods of use thereof” (Novelos Therapeutics, Inc., priority 1995, dated 2002)

What was measured:
[1] = tested on: normal human lymphocytes; experiment: Proliferation/apoptosis of normal human lymphocytes (cell number per well, flow cytofluorometry); format: cell-based
[2] = tested on: rat embrional fibroblasts (REF); experiment: Number of REF cells throughout 72-hr incubation; format: cell-based
Procedure: (§1) To this end, these substances had been incubated for 72 hours with cells of rat embrional fibroblasts (REF) and the same cells, transformed with adenoviral E1A gene in complementation with ras-oncogene (e-ras cell line). Subsequent evaluation of the cellularity of experimental samples was carried out by counting the quantity of cell per milliliter (for REF cell line) or clones in dish (for e-ras cell line).
(§2) Cells were cultivated on DMEM medium supplemented with 10% fetal calf serum and […] gentamicin. Cultivation was carried out in Petri dishes.
(§3) REF cells was cultivated with initial density of 800 000 cell per mL, evaluation of the cellularity was performed at 0, 24, 48 and 72 hours of incubation with the test articles.
(§4) For the test-system for estimation of apoptosis regulation UV-induced cell death was triggered in a dose of 4 Dj. Test articles were added immediately after irradiation. Then, the quantity of cell per milliliter (for REF cell line) or clones in dish (for e-ras cell line) were monitored every 24 hours. For determination of DNA-fragmentation the electrophoresis in agarose gel was used at standard settings.

[3] = tested on: e-ras cell line (REF transformed with E1A and ras-oncogene); experiment: Number of clones of e-ras cells throughout 72-hr incubation; format: cell-based, rat
Procedure: as §1, §2
(§5) E-ras cells were seeded at a cell density of 300 cells per 5 cm dish. 7 days after growth of e-ras cells had been started the quantity of clones was evaluated and the test articles were added into the dishes.
as §4

[4] = tested on: rat embrional fibroblasts (REF) after UV-irradiation; experiment: Number of REF cells after UV-irradiation; format: cell-based
Procedure: as §1, §2, §3, §4

[5] = tested on: e-ras cells after UV-irradiation; experiment: Number of clones of e-ras cells after UV-irradiation; format: cell-based, rat
Procedure: as §1, §2, §5, §4

[6] = tested on: leukemia P388 cells; experiment: Leukemia P388 in mice: ascitic fluid and survival (Example 14); conditions: for Accumulation of ascitic (weight gain, %): leukemia P388
[7] = tested on: leukemia L1210 cells; experiment: Leukemia L1210 in mice: ascitic fluid and survival (Example 14); conditions: for Accumulation of ascitic (weight gain, %): leukemia L1210
Procedure: An influence of 7 day course of test article daily administration was studied in respect of tumor progression, which was estimated using the two integral indices: pace of mouse weight gain due to accumulation of ascitic fluid, and by animal mean survival time after inoculation.
The study was carried out on DBA/2 mice weighing 18-21 g. First, tumor cell passage was performed using 6 animals for each cell line. For this, cells kept at the temperature of the liquid nitrogen were de-frozen and adjusted to the concentration of 5×10^6 cells/mL by sterile Hanks' solution. Then, 6 mice were intra peritoneally inoculated with 0.2 mL of each line cellular suspension.
Ascitic fluid was collected 6 days after the inoculation with L1210 cells, 8 days after the inoculation with P388 ones and 18 days after inoculation with Erlich adenocarcinoma cells. Thus obtained, the samples of passaged tumor cells were used for the main experiments. The fluid liquid was dissolved by sterile Hanks' solution so that cell concentration be 5×10^6 cells/mL for P388 cells and Erlich adenocarcinoma cells, 5×10^5 cells/mL for L1210 cells.
Eleven groups of animals with no less than 15 mice each were formed for experiments with either tumor cell line. Mice were inoculated with 0.2 mL of resultant cell suspensions per mouse (10^6 P388 and Erlich adenocarcinoma cells/mouse, and 10^5 L1210 cells/mouse). 24 hours after the tumor cells inoculation, animals were given the first injections of the test articles or vehicles. The test article injections were made daily till the 14th day of the experiment or till the animal death. The volume of solutions injected comprised 0.01 mL/g body weight.
(§6) #1—intact animals receiving imitation of tumor cell inoculation (injection of normal saline) which further were treated with normal saline throughout the entire experiment;
(§7) #2—control animals, inoculated with tumor cells, which further were treated with test article vehicle (normal saline);

[8] = tested on: Erlich adenocarcinoma cells; experiment: Erlich adenocarcinoma in mice: ascitic fluid and survival (Example 14); conditions: for Accumulation of ascitic (weight gain, %): Erlich adenocarcinoma
[9] = tested on: leukemia P388 cells; experiment: Leukemia P388 in mice: serum cytokines, ascitic fluid, survival (Example 5); conditions: for Accumulation of ascitic fluid (weight gain) / Concentration in serum: IFNα / Concentration in serum: IL-1 / Concentration in serum: IL-2 / Concentration in serum: IL-6 / Concentration in serum: TNFα: P388 mice
Procedure: (§8) An influence of 7 day course of test article daily administration was studied in respect of variations of serum cytokine levels (IL-1, IL-2, IL-6, IFNα, TNF). In parallel, the tumor progression was estimated using the two integral indices: pace of mouse weight gain due to accumulation of ascitic fluid, and by animal mean survival time after inoculation.
(§9) The study was carried out on DBA/2 mice weighing 18-21 g. First, tumor cell passage was performed using 6 animals for each cell line. For this, cells kept at the temperature of the liquid nitrogen were de-frozen and adjusted to the concentration of 5×10^6 cells/mL by sterile Hanks' solution. Then, 6 mice were intraperitoneally inoculated with 0.2 mL of each line cellular suspension.
(§10) Ascitic fluid was collected 6 days after the inoculation with L1210 cells and 8 days after the inoculation with P388 ones. Thus obtained, the samples of passaged tumor cells were used for the main experiments. The fluid liquid was dissolved by sterile Hanks' solution so that cell concentration be 5×10^6 cells/mL for P388 cells and 5×10^5 cells/mL for L1210 cells.
(§11) Nine groups of animals with no less than 15 mice each were formed for experiments with either tumor cell line. Mice were inoculated with 0.2 mL of resultant cell suspensions per mouse (10^6 P388 cells/mouse, and 10^5 L1210 cells/mouse). 24 hours after the tumor cells inoculation. animals were given the first injections of the test articles or vehicles. The test article injections were made daily till the 14th day of the experiment or until the animal's death. The volume of solutions injected comprised 0.01 mL/g body weight.
as §6, §7

[10] = tested on: leukemia L1210 cells; experiment: Leukemia L1210 in mice: serum cytokines, ascitic fluid, survival (Example 5); conditions: for Accumulation of ascitic fluid (weight gain) / Concentration in serum: IFNα / Concentration in serum: IL-1 / Concentration in serum: IL-2 / Concentration in serum: IL-6 / Concentration in serum: TNFα: L1210 mice
Procedure: as §8, §9, §10, §11, §6, §7

[11] = tested on: HL-60 cells; experiment: Proliferation/apoptosis of HL-60 tumor cells (cell number per well, flow cytofluorometry)
Procedure: Subsequent evaluation of the cell cycle parameters was carried out by the flow cytofluorometry technique.
A mononuclear fraction of blood leukocytes were obtained by centrifugation in gradient of fikoll-metrizoat (Histopaque, Sigma). […] Cell viability was estimated by the Trypan blue exclusion method, then the cell suspension was placed into wells of 96-well microtiter plates—200,000 cells per well. […] Cultivation was carried out in closed flasks, the medium volume was 12 mL, it was changed every four days by centrifugation. The nature of the cells growth was suspensive. […] 50 μL of each test solution were added to one or the other cell culture and thereafter cells were cultivated for 24-96 hours. Then, they were tested by the flow cytofluorometry to estimate DNA content in the cell nuclei. In case of apoptosis-like cellular death, the portion of cell nuclei with normal content of DNA became reduced, while the portion of cell nuclei containing abnormally small DNA quantity became larger.
The analysis procedure was the following: after incubation completion, cells were centrifuged and transferred to a standard phosphate isotonic buffer pH 7.4, containing RNA-ase A (20 μg/mL), ethidium bromide (fluorometric indicator for double stranded nucleic acid. 10 μg/mL) and MgCl2 (5 mM). After the cells were disintegrated by nonionic detergent Triton X-100 (final concentration 0.1%). The suspension of cell nuclei thus obtained was analyzed by flow cytofluorometry with an argon laser as a source of light (wave length 488 nm). The red fluorescence due to DNA bound ethidium bromide was taken to be the measure of DNA content in the cell nuclei.

SMILES: NCCSSCCN [0.1% cystamine, 2,2′-Dithio-bis[ethylamine]]
- number of normal lymphocytes per well ([1]; 24 hours incubation): 30 ± 2 × 10^4 cells
- number of normal lymphocytes per well ([1]; 48 hours incubation): 72 ± 4 × 10^4 cells
- number of normal lymphocytes per well ([1]; 72 hours incubation): 122 ± 9 × 10^4 cells
- number of normal lymphocytes per well ([1]; 96 hours incubation): 196 ± 11 × 10^4 cells
- number of REF cells (M ± m) ([2]; 0 hours of incubation): 822 ± 14 × 10^3 cells
- number of REF cells (M ± m) ([2]; 24 hours of incubation): 1523 ± 11 × 10^3 cells
- number of REF cells (M ± m) ([2]; 48 hours of incubation): 2486 ± 34 × 10^3 cells
- number of REF cells (M ± m) ([2]; 72 hours of incubation): 5048 ± 126 × 10^3 cells
- number of clones of e-ras cells (M ± m) ([3]; 0 hours of incubation): 276 ± 4
- number of clones of e-ras cells (M ± m) ([3]; 24 hours of incubation): 281 ± 4
- number of clones of e-ras cells (M ± m) ([3]; 48 hours of incubation): 271 ± 6
- number of clones of e-ras cells (M ± m) ([3]; 72 hours of incubation): 258 ± 3
- number of REF cells after UV-irradiation (M ± m) ([4]; 0 hours): 822 ± 14 × 10^3 cells
- number of REF cells after UV-irradiation (M ± m) ([4]; 24 hours): 523 ± 11 × 10^3 cells
- number of REF cells after UV-irradiation (M ± m) ([4]; 48 hours): 246 ± 34 × 10^3 cells
- number of REF cells after UV-irradiation (M ± m) ([4]; 72 hours): 208 ± 26 × 10^3 cells
- number of clones of e-ras cells after UV-irradiation (M ± m) ([5]; 0 hours): 276 ± 4
- number of clones of e-ras cells after UV-irradiation (M ± m) ([5]; 24 hours): 181 ± 4
- number of clones of e-ras cells after UV-irradiation (M ± m) ([5]; 48 hours): 111 ± 6
- number of clones of e-ras cells after UV-irradiation (M ± m) ([5]; 72 hours): 108 ± 3
- Accumulation of ascitic (weight gain, %) ([6]; number of injection 0): 0.4 ± 0.3%
- Accumulation of ascitic (weight gain, %) ([6]; number of injection 3): 5.2 ± 0.6%
- Accumulation of ascitic (weight gain, %) ([6]; number of injection 7): 18.8 ± 1.1%
- Mean survival time ([6]; mice inoculated with leukemia P388 cells): 20.2 ± 0.3
- Accumulation of ascitic (weight gain, %) ([7]; number of injection 0): 0.42 ± 0.3%
- Accumulation of ascitic (weight gain, %) ([7]; number of injection 3): 8.2 ± 0.6%
- Accumulation of ascitic (weight gain, %) ([7]; number of injection 7): 24.8 ± 2.1%
- Mean survival time ([7]; mice inoculated with leukemia L1210 cells): 10.2 ± 0.8
- Accumulation of ascitic (weight gain, %) ([8]; number of injection 0): 0.6 ± 0.2%
- Accumulation of ascitic (weight gain, %) ([8]; number of injection 3): 9.2 ± 0.8%
- Accumulation of ascitic (weight gain, %) ([8]; number of injection 7): 25.8 ± 1.7%
- Mean survival time ([8]; mice inoculated with Erlich adenocarcinoma cells): 10.2 ± 0.8
- Accumulation of ascitic fluid (weight gain) ([9]; 0 injections): 0.67 ± 0.22%
- Concentration in serum: IFNα ([9]; 0 injections): 107 ± 8.06 pg/mL
- Concentration in serum: IL-1 ([9]; 0 injections): 30.0 ± 4.02 pg/mL
- Concentration in serum: IL-2 ([9]; 0 injections): 14.9 ± 2.05 pg/mL
- Concentration in serum: IL-6 ([9]; 0 injections): 72.7 ± 9.10 pg/mL
- Concentration in serum: TNFα ([9]; 0 injections): 80.5 ± 7.14 pg/mL
- Accumulation of ascitic fluid (weight gain) ([9]; 3 daily injections): 6.0 ± 0.49%
- Concentration in serum: IFNα ([9]; 3 daily injections): 216. ± 19.08 pg/mL
- Concentration in serum: IL-1 ([9]; 3 daily injections): 41.5 ± 5.81 pg/mL
- Concentration in serum: IL-2 ([9]; 3 daily injections): 15.25 ± 1.80 pg/mL
- Concentration in serum: IL-6 ([9]; 3 daily injections): 184.0 ± 15.6 pg/mL
- Concentration in serum: TNFα ([9]; 3 daily injections): 204. ± 16.1 pg/mL
- Accumulation of ascitic fluid (weight gain) ([9]; 7 daily injections): 19.9 ± 1.67%
- Concentration in serum: IFNα ([9]; 7 daily injections): 315. ± 9.80 pg/mL
- Concentration in serum: IL-1 ([9]; 7 daily injections): 22.3 ± 3.0 pg/mL
- Concentration in serum: IL-2 ([9]; 7 daily injections): 20.18 ± 2.50 pg/mL
- Concentration in serum: IL-6 ([9]; 7 daily injections): 170.6 ± 14.3 pg/mL
- Concentration in serum: TNFα ([9]; 7 daily injections): 220. ± 19.1 pg/mL
- Mean survival time ([9]; mice inoculated with leukemia P388 cells, daily injections till day 14 or death): 9.93 ± 0.27
- Accumulation of ascitic fluid (weight gain) ([10]; 0 injections): 0.47%
- Concentration in serum: IFNα ([10]; 0 injections): 115.0 pg/mL
- Concentration in serum: IL-1 ([10]; 0 injections): 36.0 pg/mL
- Concentration in serum: IL-2 ([10]; 0 injections): 16.9 pg/mL
- Concentration in serum: IL-6 ([10]; 0 injections): 63.0 pg/mL
- Concentration in serum: TNFα ([10]; 0 injections): 88.6 pg/mL
- Accumulation of ascitic fluid (weight gain) ([10]; 3 daily injections): 5.93%
- Concentration in serum: IFNα ([10]; 3 daily injections): 200. pg/mL
- Concentration in serum: IL-1 ([10]; 3 daily injections): 47.50 pg/mL
- Concentration in serum: IL-2 ([10]; 3 daily injections): 17.30 pg/mL
- Concentration in serum: IL-6 ([10]; 3 daily injections): 70.0 pg/mL
- Concentration in serum: TNFα ([10]; 3 daily injections): 185.0 pg/mL
- Accumulation of ascitic fluid (weight gain) ([10]; 7 daily injections): 21.17%
- Concentration in serum: IFNα ([10]; 7 daily injections): 137.0 pg/mL
- Concentration in serum: IL-1 ([10]; 7 daily injections): 28.0 pg/mL
- Concentration in serum: IL-2 ([10]; 7 daily injections): 22.8 pg/mL
- Concentration in serum: IL-6 ([10]; 7 daily injections): 155.0 pg/mL
- Concentration in serum: TNFα ([10]; 7 daily injections): 213.0 pg/mL
- Mean survival time ([10]; mice inoculated with leukemia L1210 cells, daily injections till day 14 or death): 9.53 ± 0.18
- number of HL-60 cells per well ([11]; 24 hours incubation): 112 ± 10 × 10^4 cells
- number of HL-60 cells per well ([11]; 48 hours incubation): 182 ± 9 × 10^4 cells
- number of HL-60 cells per well ([11]; 72 hours incubation): 465 ± 11 × 10^4 cells
- number of HL-60 cells per well ([11]; 96 hours incubation): 618 ± 19 × 10^4 cells
